According to paper PMC12498411, “Antidepressant-like Properties of a Selenium-Containing Pyridinium Salt Explored through In Vitro, In Vivo, and In Silico Approaches” (ACS Chemical Neuroscience, 2025):

How the values were obtained:
female Swiss mice = assay: Acute oral toxicity, OECD Protocol 423 Acute Toxic Class Method; format: in vivo, mouse; details: for Food intake vs control: 50 mg/kg or 300 mg/kg; for Food intake vs control / Physical signs / Animal mortality: 14 days; for Plasma ALT activity / Plasma urea levels / Physical signs / Animal mortality: 50 and 300 mg/kg; for Physical signs / Animal mortality: gavage, female mice; for Animal mortality: single dose
Protocol: The evaluation of the acute toxicity of compounds 3A and 3B via oral administration was conducted in female Swiss mice, following the guidelines outlines in Protocol 423–OECD. The acute oral toxicity study of compound 3C was previously conducted by our research group, showing low toxicity and therefore was not evaluated here.
The animals were divided into 3 experimental groups (n = 6 mice/group) for each dosage testing: (I) Control, (II) Compound 3A, and (III) Compound 3B. Both compounds (3A and 3B) were administered at a single dose of 50 or 300 mg/kg via gavage, while control animals received water (vehicle). This high dose (300 mg/kg) was fractionated into three oral administrations of 100 mg/kg at a volume of 10 mL/kg with an interval of 30 min each. Over a period of 14 days, water and food consumption were monitored. In addition, changes in body weight and behavioral parameters such as lethargy, piloerection, and diarrhea were observed. Following this evaluation period, locomotion and exploration of the animals were assessed using the OFT. Subsequently, the animals were euthanized by an overdose of isoflurane, and blood, brain, liver, and kidney samples were collected for ex vivo analysis.
Blood plasma was used to assess liver and kidney function markers by quantifying the activity of AST and ALT, as well as urea levels, using commercially available kits (LABTEST; BIOCLIN). The brain, liver and kidneys were employed to investigate potential oxidative damage to lipids as a toxicity parameter utilizing the TBARS technique.
(§1) The aim of this behavioral test is to assess the locomotion and exploration behavior of the animals using an open field apparatus measuring 30 cm × 30 cm × 15 cm, constructed from plywood with a floor divided into nine quadrants, facilitating free movement for the animals. During the OFT, the animals were positioned in the center of the apparatus and subjected to a 5 min testing period, following the protocol outlined in literature. The number of quadrant crossings and rearings was recorded and quantified during testing phase.

protein carbonylation = assay: Protein carbonylation assay, SNP-induced, brain homogenate; format: biochemical, mouse; details: for IC50: mouse brain homogenate, SNP-induced, 25–200 μM; for Concentrations effective in reducing SNP-induced protein carbonylation: tested 25–200 μM
Protocol: Brains from mice of both sexes were used for in vitro assays, each performed in duplicate across three independent experiments (n = 3), conducted on different days.
The evaluation of protein carbonylation was performed according to a previously established protocol, using freshly prepared brain homogenate diluted at a 1:8 ratio in Tris-HCl buffer. Test compounds (10 μL), ranging in concentrations from 25 to 200 μM, were individually introduced into separate test tubes. Trolox (100 μM) served as the standard antioxidant. The diluted brain homogenate (940 μL) was then added to all tubes, followed by SNP (1 mM) as the inducing oxidative agent (50 μL). The tubes were promptly incubated at 37 °C for 2 h. Following incubation, 2 M HCl was added to blank tubes (200 μL), while 10 mM 2,4-dinitrophenyl-hydrazine (DNPH) solution was added to test tubes (200 μL). The mixture was incubated for 1 h in darkness at room temperature, with intermittent stirring every 15 min to facilitate the color reaction. Subsequently, 500 μL of denaturation buffer, 1.5 mL of ethanol, and 1.5 mL of hexane were added to all tubes, which were then vigorously shaken for 40 s. The tubes were then centrifuged at 900g for 15 min, and the supernatant was carefully decanted. The resulting pellet was washed twice with 1 mL of ethanol/ethyl acetate solution (1:1). After allowing the pellet to dry air for 2 min, it was resuspended in 1 mL of denaturation buffer and subjected to spectrophotometric analysis at 370 nm. The findings were quantified as nmol carbonyl per gram of tissue.

male Swiss mice [1] = assay: Tail suspension test (TST); format: in vivo, mouse
Protocol: A behavioral screening was conducted using the three salts to determine their potential antidepressant-like actions (n = 7–9 mice/group).
(§2) A dosage of 5 mg/kg (intragastric route, i.g., by gavage) was administered to all groups receiving the salts. […] The TST was conducted 30 min following drug administration, with the OFT being performed 4 min prior to the TST.
(§3) Following the selection of the most promising salt during screening (Compound 3B), an analysis of the compound’s time-response curve was conducted in the mouse TST. For this purpose, the animals were divided into five groups: (I) control (water; i.g.), (II) the group receiving compound 3B 15 min prior to TST, (III) the group receiving compound 3B 30 min before TST, (IV) the group receiving compound 3B 60 min before TST, and (V) the group receiving compound 3B 120 min before TST. The dosage of salt was standardized at 5 mg/kg (i.g). OFT was conducted 4 min prior to the TST.
(§4) After choosing a suitable preadministration time, the dose–response curve of the compound at this fixed time was analyzed. The animals were categorized into […]: I) a control group (administered water; i.g.) and groups II, III, IV and V) receiving compound 3B at doses of 0.5 mg/kg, 1 mg/kg, 2.5 mg/kg, and 5 mg/kg (i.g.), respectively. […] Thirty minutes postadministration, the animals underwent the TST. Four minutes prior to the TST, they underwent the OFT.
This test aims to assess depressive-like behavior and antidepressant-like action of therapies by measuring immobility. […] The test was conducted using a mouse suspension box made of wood, measuring 50 cm × 21 cm × 21 cm, designed to prevent any visual or physical interaction among the animals. A suspension bar was positioned atop the box, and the mouse’s tail was affixed to the bar using adhesive tape. The test duration was 6 min, during which the animal’s latency to the first immobility episode and the total duration of immobility (sec) were assessed.

male Swiss mice [2] = assay: Open field test (OFT) before the TST; format: in vivo, mouse
Protocol: as §2, §3, §4, §1

[3] = salts 5 mg/kg i.g., fluoxetine 20 mg/kg i.p., 30 min before test

SMILES	Body weight at the last measurement (last day) vs control (female Swiss mice; 50 mg/kg)	Plasma AST activity (female Swiss mice; 50 mg/kg)	Food intake vs control (female Swiss mice)	Water consumption vs control (female Swiss mice; 300 mg/kg)	Plasma ALT activity (female Swiss mice)	Plasma urea levels (female Swiss mice)	Physical signs (female Swiss mice)	Animal mortality (female Swiss mice)	IC50 (protein carbonylation)	Concentrations effective in reducing SNP-induced protein carbonylation (protein carbonylation)	other results
O=C(C[n+]1ccccc1C[Se]c1ccccc1)c1ccccc1.[Br-] [Compound 3A, 1-(2-oxo-2-phenylethyl)-2-((phenylselanyl)methyl)pyridin-1-ium bromide]	reduction in body weight	did not affect AST activity	ate similar to the control group	no significant difference	remained unchanged	remained similar	did not indicate any observable changes	no instances of animal mortality	130 µM	all concentrations	Water consumption vs control (female Swiss mice; 50 mg/kg): decreased
Cc1ccc(C(=O)C[n+]2ccccc2C[Se]c2ccccc2)cc1 [Compound 3B, 1-(2-oxo-2-(p-tolyl)ethyl)-2-((phenylselanyl)methyl)pyridin-1-ium bromide]	did not differ significantly	did not affect AST activity	ate similar to the control group	no significant difference	remained unchanged	remained similar	did not indicate any observable changes	no instances of animal mortality	230 µM	200 µM	Ex vivo lipid peroxidation (TBARS) in liver (female Swiss mice; 50 mg/kg): an increase in damage was observed; Ex vivo lipid peroxidation (TBARS) in liver (female Swiss mice; 300 mg/kg): not evident at the higher dose; Plasma AST activity (female Swiss mice; 300 mg/kg): an increase was observed; Minimum effective dose for antidepressant-like action (male Swiss mice [1]; TST, i.g., 30 min): 1 mg/kg; TST latency time to first immobility episode, screening (male Swiss mice [1]; [3]): significantly increased latency time; TST total immobility time, screening (male Swiss mice [1]; [3]): shorter total immobility times; Cohen-D effect size in TST (male Swiss mice [1]; screening, 5 mg/kg i.g., 30 min): > 1.77; OFT locomotor and exploratory activities, time-response experiment (male Swiss mice [2]; 5 mg/kg i.g., 15–120 min): did not affect the locomotor and exploratory activities; OFT number of crossings, dose–response experiment (male Swiss mice [2]; 0.5–5 mg/kg i.g.): no changes were observed; OFT number of rearings, dose–response experiment (male Swiss mice [2]; 3B 0.5–5 mg/kg i.g., fluoxetine 20 mg/kg i.p.): did not impact on the exploratory behavior profile
